Source: article PMC3707514 (Chemical research in toxicology, 2013)

Tests used:
P450 2S1 [1] = molecular target: T1, P450 2S1 (Homo sapiens, UniProt Q96SQ9); type: biochemical
T1 sequence (Q96SQ9 1-504): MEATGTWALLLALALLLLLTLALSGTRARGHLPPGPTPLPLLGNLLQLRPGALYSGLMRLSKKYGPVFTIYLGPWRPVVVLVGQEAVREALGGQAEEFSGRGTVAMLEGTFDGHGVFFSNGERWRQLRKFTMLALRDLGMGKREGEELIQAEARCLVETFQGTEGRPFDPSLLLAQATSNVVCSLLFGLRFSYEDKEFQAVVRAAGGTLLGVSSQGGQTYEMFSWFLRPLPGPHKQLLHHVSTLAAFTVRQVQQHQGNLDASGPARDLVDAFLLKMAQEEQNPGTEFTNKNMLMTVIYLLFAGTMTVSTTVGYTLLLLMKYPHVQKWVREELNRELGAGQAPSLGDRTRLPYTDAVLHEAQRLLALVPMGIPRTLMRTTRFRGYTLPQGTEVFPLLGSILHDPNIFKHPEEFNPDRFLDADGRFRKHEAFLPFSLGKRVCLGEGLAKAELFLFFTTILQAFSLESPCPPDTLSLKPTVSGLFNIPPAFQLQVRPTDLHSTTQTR

P450 2S1 [2] = molecular target: T1, P450 2S1; type: biochemical; remark: listed apart in the source
P450 2S1 [3] = molecular target: T1, P450 2S1; type: biochemical; remark: listed apart in the source
P450 2S1 [4] = molecular target: T1, P450 2S1; experiment: UV-visible difference spectral titration of purified P450 2S1; type: binding

Compound: ONc1ccc2c(c1)Cc1ccccc1-2 [2-HONH-fluorene]
- anaerobic reduction to 2-aminofluorene by purified P450 2S1, HPLC, minus-P450 co (P450 2S1 [1]): 0.34 ± 0.12 min⁻¹

Compound: ONc1ccc2ccccc2c1 [2-HONH-naphthalene]
- anaerobic reduction to 2-naphthylamine by purified P450 2S1, HPLC, minus-P450 co (P450 2S1 [2]): 2.4 ± 0.8 min⁻¹

Compound: ONc1ccc(-c2ccccc2)cc1 [4-HONH-biphenyl]
- anaerobic reduction to 4-aminobiphenyl by purified P450 2S1, HPLC, minus-P450 co (P450 2S1 [3]): 0.18 ± 0.01 min⁻¹

Compound: Cc1cc(-c2nc3cc(F)ccc3s2)ccc1NO [HONH-5F 203, 2-(4-hydroxylamino-3-methylphenyl)-5-fluorobenzothiazole]
- Kd (P450 2S1 [4]): 30 ± 10 µM
